Measurements from publication PMC5983811, “Protein Tyrosine Phosphatase 1B Inhibition and Glucose Uptake Potentials of Mulberrofuran G, Albanol B, and Kuwanon G from Root Bark of Morus alba L. in Insulin-Resistant HepG2 Cells: An In Vitro and In Silico Study” (International Journal of Molecular Sciences, 2018).

Key:
PTP1B expression = PTP1B expression level in insulin-resistant HepG2 cells (Western blot); format: cell-based, human
Method: Insulin-resistant HepG2 cells were exposed to different concentrations of 1–3 or rosiglitazone (10 μM) in 24-well plates. After 24 h of incubation with samples, the media in the wells was replaced with 100 nM insulin diluted in SFMEM and incubated at 37 °C for 30 min. Cells were then washed twice with ice-cold PBS, collected, and lysed with sample buffer (50 mM HEPES, pH 7.5, 150 mM NaCl, 2.5 mM EDTA, 0.5% NP-40, 1 mM PMSF, 1 mM DTT, 0.2% aprotinin, 0.5% leupeptin, 20 mM NaF, and 1 mM Na3VO4). Protein was quantified by the modified Bradford protein assay kit using BSA as a standard. Total protein (50 μg) was electrophoresed on sodium dodecyl sulfate-polyacrylamide gels (Bio-Rad, Hercules, CA, USA) and then transferred to polyvinylidene difluoride (PVDF) membranes (Immobilon-P; Millipore, Burlington, MA, USA) using the Pierce G2 Fast Blotter (Thermo Fisher Scientific Inc., Fair Lawn, NJ, USA) at 100 V for 60 min in a standard semi-dry system. Membranes were blocked in blocking buffer (5% skim milk powder in TBS-Tween buffer containing 10 mM Tris, 100 mM NaCl, and 0.1% Tween-20, pH 7.4) and incubated overnight with primary antibodies at 4 °C on a shaker, followed by incubation with appropriate secondary antibodies for 2 h at room temperature. The membranes were washed three times with TBST (3 × 10 min each) and the protein bands were visualized with the Supersignal West Pico Chemiluminescence Substrate (Pierce, Rockford, IL, USA) on X-ray films (Kodak, Rochester, NY, USA) and quantitated using CS analyzer software (Atto Corp., Tokyo, Japan).

[1] = tested on: insulin-resistant HepG2 cells; experiment: Glucose uptake assay (2-NBDG) in insulin-resistant HepG2 cells; format: cell-based, human
Method: (§1) HepG2 (human hepatocarcinoma) cells, purchased from the American Type Culture Collection (HB-8065; Manassas, VA, USA), were maintained in 10% FBS MEM at 37 °C in a humidified atmosphere with 5% CO2. Medium was changed every 48 h. Cytotoxicity was evaluated using the MTT assay. Following the method previously described, insulin-resistant HepG2 cell model was established. All the other experiment conditions and procedures were similar to those reported in our previous paper.
The glucose uptake rate in insulin-resistant HepG2 cells was assessed using the fluorescent D-glucose analog 2-NBDG. Once the induction of insulin resistance was accomplished, cell solutions in the wells were substituted with different concentrations of 1–3 or a positive control, rosiglitazone (10 µM), prepared in serum-free MEM (SFMEM) in respective groups. After 24 h incubation with samples, the media in the wells was replaced with 100 nM insulin diluted in SFMEM and incubated for 30 min. Cells were then incubated with 40 μM 2-NBDG for 30 min and washed with ice-cold PBS. The fluorescence intensity of 2-NBDG was measured on a fluorescence microplate reader (FL ×800, Bio-Tek Instruments, Inc., Winooski, VT, USA) at 485 nm excitation and 528 nm emission wavelengths. Six replicate wells were established, and each experiment was repeated three times.

[2] = Cytotoxicity in HepG2 cells (MTT assay); format: cell-based; conditions: human, read-out: viable cell %
Method: In order to determine safe concentrations for cell experiments, the cytotoxicity of our test compounds in HepG2 cells was evaluated using an 3-(4,5-dimethylthiazol-2-yl)-2,5-diphenyltetrazolium bromide (MTT) assay. […] However, at 10 µM, the level of toxicity was high for 1 (viable cell %; 36), followed by 2 (viable cell %; 73) and 3 (viable cell %; 85). Therefore, 1.25, 2.5, and 5 µM concentrations were used in further cell experiments.
as §1

[3] = biological target: T1, PTP1B (human recombinant) (Homo sapiens, UniProt P18031); experiment: PTP1B inhibitory assay (pNPP substrate) and kinetic study; format: biochemical; conditions: for Ki: Dixon plot, read-out: Protein Tyrosine Phosphatase 1B Ki; for Protein Tyrosine Phosphatase 1B Inhibition Type: Lineweaver-Burk plot; for IC50: pNPP substrate, mean ± SEM of triplicate experiments, read-out: Protein Tyrosine Phosphatase 1B IC50
T1 construct: purchased Biomol International LP (Plymouth Meeting, PA, USA)
T1 sequence (P18031 1-435): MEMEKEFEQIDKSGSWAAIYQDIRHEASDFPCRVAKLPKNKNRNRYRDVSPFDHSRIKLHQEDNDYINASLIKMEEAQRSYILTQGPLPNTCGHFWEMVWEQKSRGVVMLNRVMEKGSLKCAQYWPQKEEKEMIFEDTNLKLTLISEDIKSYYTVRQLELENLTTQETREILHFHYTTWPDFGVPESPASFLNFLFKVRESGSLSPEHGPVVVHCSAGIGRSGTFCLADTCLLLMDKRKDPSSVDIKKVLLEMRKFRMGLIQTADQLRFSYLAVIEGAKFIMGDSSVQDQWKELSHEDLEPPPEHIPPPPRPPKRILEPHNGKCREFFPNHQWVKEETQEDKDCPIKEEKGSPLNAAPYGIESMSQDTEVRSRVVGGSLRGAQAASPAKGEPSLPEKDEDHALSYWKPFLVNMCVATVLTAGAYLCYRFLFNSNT
Method: PTP1B inhibitory activity was evaluated using pNPP [44]. Recombinant PTP1B enzyme (0.5 units diluted in PTP1B reaction buffer) was added to a plate with or without sample. The plate was pre-incubated at 37 °C for 10 min, and then substrate (2 mM pNPP) was added. Following incubation at 37 °C for 15 min, the enzymatic reaction was terminated by addition of 10 M NaOH. The absorbance was measured at 405 nm using a microplate spectrophotometer (Molecular Devices, Sunnyvale, CA, USA).
(§2) Lineweaver–Burk plots for inhibition of PTP1B were obtained in the presence of various concentrations of the test compounds (0, 0.18, 0.44 and 1.78 μM for 1; 0, 0.27, 0.54, and 1.07 μM for 2; 0, 0.87, 1.44, and 2.89 μM for 3). Similarly, for the inhibition of α-glucosidase, text concentrations used were 0, 0.71, 1.07, and 1.78 μM for 1; 0, 0.36, 0.9, and 1.79 μM for 2 and 0, 0.72, 2.88, and 5.77 μM for 3. The enzymatic procedure consisted of the same aforementioned assay method. The inhibition constants (Ki) were determined via interpretation of the Dixon plots, where the value of the x-axis implies −Ki.

α-glucosidase = experiment: α-Glucosidase inhibitory assay (pNPG substrate) and kinetic study; format: biochemical; conditions: for Ki: Dixon plot; for α-Glucosidase Inhibition Type: Lineweaver-Burk plot; for IC50: pNPG substrate, mean ± SEM of triplicate experiments
Method: The enzyme inhibition study was carried out spectrophotometrically using the procedure previously reported. The α-glucosidase activity was determined by measuring release of […] at 405 nm using a microplate spectrophotometer (Molecular Devices).
as §2

Ki [3] [µM]	Protein Tyrosine Phosphatase 1B Inhibition Type [3]	IC50 [3] [µM]	Ki (α-glucosidase) [µM]	α-Glucosidase Inhibition Type (α-glucosidase)	IC50 (α-glucosidase) [µM]	Structure (SMILES)	PTP1B expression (PTP1B expression; 2.5 and 5 μM)	relative glucose uptake percentage ([1]; 5 µM) [%]	viability at 10 µM [2] [%]	PTP1B expression (PTP1B expression; concentration dependent)	PTP1B expression (PTP1B expression; 10 μM)	relative % glucose uptake ([1]; 10 µM) [%]
0.7	Mixed type	0.57 ± 0.04	1.2	Mixed type	1.67 ± 0.02	CC1=C[C@H]2c3c(O)cc(-c4cc5ccc(O)cc5o4)cc3O[C@@]3(c4ccc(O)cc4O)Oc4cc(O)ccc4[C@H](C1)[C@@H]23 [Compound 1, mulberrofuran G]	diminished the PTP1B expression almost completely	140	36	–	–	–
1.98	Mixed type	2.26 ± 0.03	2.51	Mixed type	2.35 ± 0.03	CC(C)=CCc1c(-c2ccc(O)cc2O)oc2c([C@H]3C=C(C)C[C@@H](c4ccc(O)cc4O)[C@@H]3C(=O)c3ccc(O)cc3O)c(O)cc(O)c2c1=O [Compound 3, kuwanon G]	–	–	85	downregulated the expression towards normal	–	–
1.02	–	0.8 ± 0.02	–	–	–	Cc1cc2c3c(c1)-c1c(O)cc(-c4cc5ccc(O)cc5o4)cc1O[C@@]3(c1ccc(O)cc1O)Oc1cc(O)ccc1-2 [Compounds 2]	–	–	73	–	–	–
–	–	–	–	–	–	CN(CCOc1ccc(CC2SC(=O)NC2=O)cc1)c1ccccn1 (stereo not shown) [rosiglitazone, reference compound]	–	–	–	–	declined	123
